Results reported in patent publication EP0185130A1, “5-Alkoxy-2,4,6-triodo or tribromo-isophthalic-acid derivatives, process for their preparation and X-ray contrast agents containing them” (BRACCO INDUSTRIA CHIMICA Società per Azioni, priority 1984, dated 1986).
Values after ≈ are worked out from the molar mass of the structure shown.

Experiment: Water solubility
Format: physicochemical
Settings: bei 20 °C

Row | Compound | Wasserlöslichkeit
1 | R(+)-5-(1(1,3-Dihydroxyisopropylaminocarbonyl)ethoxy)-2,4,6-tribromiso- phthalsäure-bis(1,3-dihydroxyisopropylamid) [Beispiel 13] | 5 % (g/v)

Same assay, conditions: bei 100 °C

Row | Compound | Wasserlöslichkeit
2 | R(+)-5-(1(1,3-Dihydroxyisopropylaminocarbonyl)ethoxy)-2,4,6-tribromiso- phthalsäure-bis(1,3-dihydroxyisopropylamid) [Beispiel 13] | 100 % (g/v)

Same assay, conditions: result in words, no temperature stated

Row | Compound | Wasserlöslichkeit
3 | O=C(NC(CO)CO)c1c(I)c(OC(CO)CO)c(I)c(C(=O)NC(CO)CO)c1I [Beispiel 9, 5-(1,3-Dihydroxyisopropyl)oxy-2,4,6-trijodisophthalsäure-bis(1,3-di-hydroxyisopropylamid)] | in Wasser leicht löslich
4 | O=C(NC(CO)CO)c1c(I)c(OCC(O)CO)c(I)c(C(=O)NC(CO)CO)c1I (stereo not shown) [Beispiel 8, 5-(2,3-Dihydroxypropyl)oxy-2,4,6-trijodisophthalsäure-bis(1,3-dihydroxy-isopropylamid)] | löslich in Wasser
5 | C[C@@H](Oc1c(I)c(C(=O)NC(CO)CO)c(I)c(C(=O)NC(CO)CO)c1I)C(=O)NC(CO)CO [Beispiel 14, R(-)-5-(1(1,3-Dihydroxyisopropylaminocarbonyl)ethoxy)-2,4,6-trijodiso-phthalsäure-bis(1,3-dihydroxyisopropylamid)] | gering
6 | O=C(NC(CO)CO)c1c(I)c(OCC(CO)(CO)CO)c(I)c(C(=O)NC(CO)CO)c1I [Beispiel 10, 5-(2,2-Bis-(hydroxymethyl)-3-hydroxypropyl)oxy-2,4,6-trijodisophthal-säure-bis(1,3-dihydroxyisopropylamid)] | spielend leicht wasserlöslich

Further lines, results first:

Row | Wasserlöslichkeit | Compound
7 | leicht löslich in Wasser | O=C(COc1c(I)c(C(=O)NCC(O)CO)c(I)c(C(=O)NCC(O)CO)c1I)NC(CO)CO (stereo not shown) [Beispiel 48, 5-(1,3-Dihydroxyisopropylaminocarbonyl)methoxy-2,4,6-trijodisophthal-säure-bis(2,3-dihydroxypropylamid)]
8 | kaum löslich in Wasser | O=C(COc1c(I)c(C(=O)NC(CO)CO)c(I)c(C(=O)NC(CO)CO)c1I)NCCNC(=O)COc1c(I)c(C(=O)NC(CO)CO)c(I)c(C(=O)NC(CO)CO)c1I [Beispiel 46, 1,2-Bis-(3,5-bis(1,3-dihydroxyisopropylaminocarbonyl)-2,4,6-trijod-phenoxy-acetylamino)-ethan]
9 | Wenig löslich in Wasser | O=C(NCC(O)CO)c1c(I)c(OCCOCCOCCOc2c(I)c(C(=O)NCC(O)CO)c(I)c(C(=O)NCC(O)CO)c2I)c(I)c(C(=O)NCC(O)CO)c1I (stereo not shown) [Beispiel 44, 1,8-Bis-(3,5-bis(2,3-dihydroxypropylaminocarbonyl)-2,4,6-trijod-phenoxy)-3,6-dioxan]

Same assay, conditions: water, bei 20 °C; read-out: Wasserlöslichkeit

Row | Compound | solubility
10 | C[C@@H](Oc1c(I)c(C(=O)NC(CO)CO)c(I)c(C(=O)NC(CO)CO)c1I)C(=O)N(C)CC(O)CO (stereo partly shown) [Beispiel 20 R] | > 1000 mg/mL
11 | CC(CO)(CO)NC(=O)COc1c(I)c(C(=O)NC(CO)CO)c(I)c(C(=O)NC(CO)CO)c1I [Beispiel 15, 5-(1,3-Dihydroxy-2-methylisopropylaminocarbonyl)methoxy-2,4,6-trijodiso-phthalsäure-bis(1,3-dihydroxyisopropylamid)] | 16 mg/mL (≈ 18.8 mM)
12 | CN(C[C@H](O)[C@H](O)CO)C(=O)COc1c(I)c(C(=O)NC(CO)CO)c(I)c(C(=O)NC(CO)CO)c1I [Beispiel 21, 5-(N-Methyl-N-2,3,4-trihydroxybutyl)aminocarbonylmethoxy-2,4,6-trijod-isophthalsäure-bis(1,3-dihydroxyisopropylamid)] | > 1000 mg/mL
13 | O=C(COc1c(Br)c(C(=O)NC(CO)CO)c(Br)c(C(=O)NC(CO)CO)c1Br)NC(CO)CO [Beispiel 12, 5-(1,3-Dihydroxyisopropylaminocarbonyl)methoxy-2,4,6-tribromisophthal-säure-bis(1,3-dihydroxyisopropylamid)] | > 1000 mg/mL

Next, values leading:

Row | solubility | Compound
14 | ≥ 1000 mg/mL | CN(CC(O)CO)C(=O)COc1c(I)c(C(=O)NC(C)(CO)CO)c(I)c(C(=O)NC(C)(CO)CO)c1I (stereo not shown) [Beispiel 39, 5(N-Methyl-N-2,3-dihydroxypropyl)aminocarbonylmethoxy-2,4,6-trijod-isophthalsäure-bis(1,3-dihydroxy-2-methylisopropylamid)]
15 | 10 mg/mL (≈ 11.9 mM) | O=C(COc1c(I)c(C(=O)NCC(O)CO)c(I)c(C(=O)NCC(O)CO)c1I)NCC(O)CO (stereo not shown) [Beispiel 32, 5-(2,3-Dihydroxypropylaminocarbonylmethoxy)-2,4,6-trijodisophthalsäure-bis(2,3-dihydroxypropylamid)]
16 | > 1000 mg/mL | CN(C[C@H](O)[C@@H](O)[C@H](O)[C@H](O)CO)C(=O)COc1c(I)c(C(=O)NCC(O)CO)c(I)c(C(=O)NCC(O)CO)c1I (stereo partly shown) [Beispiel 37, 5-(N-Methyl-N-2,3,4,5,6-pentahydroxyhexyl)aminocarbonylmethoxy-2,4,6-trijodisophthalsäure-bis(2,3-dihydroxypropylamid)]

Same assay, conditions: water, bei 25 °C; read-out: Wasserlöslichkeit

Row | Compound | solubility
17 | C[C@@H](Oc1c(I)c(C(=O)NC(CO)CO)c(I)c(C(=O)NC(CO)CO)c1I)C(=O)NC(CO)(CO)CO [Beispiel 16, R(-)-5(1(1,3-Dihydroxy-2-hydroxymethyl-isopropylaminocarbonyl)ethoxy)-2,4,6-trijodisophthalsäure-bis(1,3-dihydroxyisopropylamid)] | 25 mg/mL (≈ 28.4 mM)
18 | O=C(NC(CO)CO)c1c(I)c(OCC(=O)N(CCO)CCO)c(I)c(C(=O)NC(CO)CO)c1I [Beispiel 17] | > 1000 mg/mL

The next lines start with the values.

Row | solubility | Compound
19 | ~800 mg/mL (≈ 1010 mM) | COC(=O)[C@@H](C)Oc1c(I)c(C(=O)NC(CO)CO)c(I)c(C(=O)NC(CO)CO)c1I [R(+)-5(1(Methoxycarbonyl)ethoxy-IPSA]
20 | > 1000 mg/mL | CN(C[C@H](O)[C@@H](O)[C@@H](O)CO)C(=O)COc1c(I)c(C(=O)NCC(O)CO)c(I)c(C(=O)NCC(O)CO)c1I (stereo partly shown) [Beispiel 36, 5-(N-Methyl-N-2,3,4,5-tetrahydroxypentyl)aminocarbonylmethoxy-2,4,6-trijodisophthalsäure-bis(2,3-dihydroxypropylamid)]
21 | > 1000 mg/mL | C[C@@H](Oc1c(I)c(C(=O)NC(CO)CO)c(I)c(C(=O)NC(CO)CO)c1I)C(=O)N(C)C[C@H](O)[C@@H](O)[C@@H](O)CO [Beispiel 26, R-5(1((N-Methyl-N-2,3,4,5-tetrahydroxypentyl)aminocarbonyl)ethoxy)-2,4,6-trijodisophthalsäure-bis(1,3-dihydroxyisopropylamid)]
22 | > 1000 mg/mL | CN(C[C@H](O)[C@H](O)CO)C(=O)COc1c(I)c(C(=O)NCC(O)CO)c(I)c(C(=O)NCC(O)CO)c1I (stereo partly shown) [Beispiel 35, 5-(N-Methyl-N-2,3,4-trihydroxybutyl)aminocarbonylmethoxy-2,4,6-trijod-isophthalsäure-bis(2,3-dihydroxypropylamid)]

Same assay, conditions: water, bei 100 °C; read-out: Wasserlöslichkeit

Row | Compound | solubility
23 | C[C@@H](Oc1c(I)c(C(=O)NC(CO)CO)c(I)c(C(=O)NC(CO)CO)c1I)C(=O)NC(CO)(CO)CO [Beispiel 16, R(-)-5(1(1,3-Dihydroxy-2-hydroxymethyl-isopropylaminocarbonyl)ethoxy)-2,4,6-trijodisophthalsäure-bis(1,3-dihydroxyisopropylamid)] | 1000 mg/mL (≈ 1130 mM)

Same assay, conditions: water, bei Siedetemperatur; read-out: Wasserlöslichkeit

Row | Compound | solubility
24 | O=C(COc1c(I)c(C(=O)NCC(O)CO)c(I)c(C(=O)NCC(O)CO)c1I)NCC(O)CO (stereo not shown) [Beispiel 32, 5-(2,3-Dihydroxypropylaminocarbonylmethoxy)-2,4,6-trijodisophthalsäure-bis(2,3-dihydroxypropylamid)] | 100 mg/mL (≈ 119 mM)
25 | CC(CO)(CO)NC(=O)COc1c(I)c(C(=O)NC(CO)CO)c(I)c(C(=O)NC(CO)CO)c1I [Beispiel 15, 5-(1,3-Dihydroxy-2-methylisopropylaminocarbonyl)methoxy-2,4,6-trijodiso-phthalsäure-bis(1,3-dihydroxyisopropylamid)] | 1000 mg/mL (≈ 1170 mM)
26 | CNC(=O)COc1c(I)c(C(=O)NC(CO)CO)c(I)c(C(=O)NC(CO)CO)c1I [Beispiel 11, 5-Methylaminocarbonylmethoxy-2,4,6-trijod-isophthalsäure-bis(1,3-di-hydroxyisopropylamid)] | 100 mg/mL (≈ 129 mM)

Same assay, conditions: water, no temperature stated; read-out: Wasserlöslichkeit

Row | Compound | solubility
27 | CN(C[C@@H](O)[C@H](O)[C@H](O)CO)C(=O)COc1c(I)c(C(=O)NC(CO)CO)c(I)c(C(=O)NC(CO)CO)c1I [Beispiel 25, 5-(N-Methyl-N-2,3,4,5-tetrahydroxypentyl)aminocarbonylmethoxy-2,4,6-trijodisophthalsäure-bis(1,3-dihydroxyisopropylamid)] | > 1000 mg/mL
28 | O=C(NC(CO)CO)c1c(I)c(OCC(=O)N(CCO)CC(O)CO)c(I)c(C(=O)NC(CO)CO)c1I (stereo not shown) [Beispiel 23, 5-(N-2-Hydroxyethyl-N-2,3-dihydroxypropyl)aminocarbonylmethoxy-2,4,6-trijodisophthalsäure-bis(1,3-dihydroxyisopropylamid)] | > 1000 mg/mL
